Source: ChEMBL document CHEMBL1201862, “PubChem BioAssay data set” (2004)
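Test compounds were applied to cells in 96-well plates for 48 hours at 5 doses. GI50: concentration for 50% inhibition of growth.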 Activity calls are given as the source filed them. No stated cut-off is given here; in the data, active = GI50 up to about 1.1 µM and inactive = higher.

Columns and labels:
Experiment in all cases: growth of human tumour cells (NCI), 48 h
[1] = tested on: 786-0
[2] = tested on: A498
[3] = tested on: A549
[4] = tested on: ACHN
[5] = tested on: CAKI-1
[6] = tested on: CCRF-CEM
[7] = tested on: COLO 205
[8] = tested on: DLD-1
[9] = tested on: DMS-273
[10] = tested on: EKVX
[11] = tested on: HCT-116
[12] = tested on: HCT-15
[13] = tested on: HL-60
[14] = tested on: HOP-18
[15] = tested on: HOP-62
[16] = tested on: HOP-92
[17] = tested on: HT-29
[18] = tested on: IGROV-1
[19] = tested on: K562
[20] = tested on: KM-20L2
[21] = tested on: KM12
[22] = tested on: LOX IMVI
[23] = tested on: LXFL 529
[24] = tested on: M14
[25] = tested on: M19-MEL
[26] = tested on: Malme-3M
[27] = tested on: NCI-H226
[28] = tested on: NCI-H23
[29] = tested on: NCI-H460
[30] = tested on: NCI-H522
[31] = tested on: OVCAR-3
[32] = tested on: OVCAR-4
[33] = tested on: OVCAR-5
[34] = tested on: OVCAR-8
[35] = tested on: RPMI-8226
[36] = tested on: RXF 393
[37] = tested on: RXF 631
[38] = tested on: SF-268
[39] = tested on: SF-295
[40] = tested on: SF-539
[41] = tested on: SK-MEL-28
[42] = tested on: SK-MEL-2
[43] = tested on: SK-MEL-5
[44] = tested on: SK-OV-3
[45] = tested on: SN12C
[46] = tested on: SNB-75
[47] = tested on: SNB-78
[48] = tested on: SR
[49] = tested on: SW-620
[50] = tested on: TK-10
[51] = tested on: U-251
[52] = tested on: UACC-257
[53] = tested on: UACC-62
[54] = tested on: UO-31
[55] = tested on: XF498
[56] = tested on: DMS-114
[57] = tested on: HCC 2998
[58] = tested on: MOLT-4
[59] = tested on: SNB-19

Measured: GI50

O=C(Nc1nc2c(ncn2C2OC(CO)C(O)C2O)c(=O)[nH]1)c1ccccc1 (centres undefined)
> 100 µM: [12]
inactive: [1] > 100 µM | [2] > 100 µM | [3] > 100 µM | [4] > 100 µM | [5] > 100 µM | [6] 2.5 µM | [7] > 100 µM | [8] > 100 µM | [9] > 100 µM | [10] > 100 µM | [11] > 100 µM | [13] > 100 µM | [14] > 100 µM | [15] > 100 µM | [16] > 100 µM | [17] > 100 µM | [18] > 100 µM | [19] > 100 µM | [20] > 100 µM | [21] > 100 µM | [22] > 100 µM | [23] > 100 µM | [24] > 100 µM | [25] > 100 µM | [26] > 100 µM | [27] > 100 µM | [28] > 100 µM | [29] > 100 µM | [30] 93.3 µM | [31] > 100 µM | [32] > 100 µM | [33] > 100 µM | [34] > 100 µM | [35] > 100 µM | [36] 63 µM | [37] > 100 µM | [38] > 100 µM | [39] > 100 µM | [40] > 100 µM | [41] > 100 µM | [42] > 100 µM | [43] > 100 µM | [44] > 100 µM | [45] > 100 µM | [46] > 100 µM | [47] > 100 µM | [48] > 100 µM | [49] > 100 µM | [50] > 100 µM | [51] > 100 µM | [52] > 100 µM | [53] > 100 µM | [54] > 100 µM | [55] > 100 µM

Cc1ccccc1NC(=O)CC(=O)NNCC(=O)Nc1nnc(-c2ccccc2)s1
58.2 µM: [12]
inactive: [1] 31.9 µM | [2] 30.9 µM | [3] > 100 µM | [4] 54.2 µM | [5] > 100 µM | [7] > 100 µM | [8] 98.9 µM | [56] 43.6 µM | [9] 73.6 µM | [10] 49.7 µM | [57] > 100 µM | [11] 64.9 µM | [13] 31.5 µM | [14] 29 µM | [15] 42.9 µM | [17] > 100 µM | [18] > 100 µM | [19] 37.8 µM | [20] > 100 µM | [21] > 100 µM | [22] 51.3 µM | [23] 39.2 µM | [24] 57.1 µM | [25] > 100 µM | [58] 35.7 µM | [27] 26.5 µM | [28] > 100 µM | [29] 48.2 µM | [30] 65.2 µM | [31] 31.4 µM | [32] 18 µM | [33] > 100 µM | [34] 54.2 µM | [35] 25 µM | [37] > 100 µM | [38] > 100 µM | [39] > 100 µM | [40] > 100 µM | [41] > 100 µM | [42] > 100 µM | [43] 51.1 µM | [45] > 100 µM | [59] 79.1 µM | [46] 24.7 µM | [47] > 100 µM | [48] 32.1 µM | [49] 87.7 µM | [50] 42.7 µM | [51] 50 µM | [52] > 100 µM | [53] > 100 µM | [54] 45 µM | [55] 31.9 µM
